PMC7265341, “Quantifying CDK inhibitor selectivity in live cells” (Nature Communications, 2020)
Where two headings read alike, the source gives them in different places.

What was measured:
CDK18/Cyclin Y = CDK18/Cyclin Y (Homo sapiens, UniProt Q07002); assay: NanoBRET live-cell target engagement, CDK18-NanoLuc/Cyclin Y in HEK-293; type: binding; conditions: CDK18/Y
CDK12/Cyclin K = CDK12/Cyclin K (Homo sapiens, UniProt Q9NYV4); assay: NanoBRET live-cell target engagement, CDK12-NanoLuc/Cyclin K in HEK-293; type: binding; conditions: CDK12/K
CDK11B/Cyclin L2 = CDK11B/Cyclin L2 (Homo sapiens, UniProt P21127); assay: NanoBRET live-cell target engagement, CDK11B-NanoLuc/Cyclin L2 in HEK-293; type: binding; conditions: CDK11b/L2, 10µM
CDK6/Cyclin D1 = CDK6/Cyclin D1 (Homo sapiens, UniProt Q00534); assay: NanoBRET live-cell target engagement, NanoLuc-CDK6/Cyclin D1 in HEK-293; type: binding; conditions: CDK6/D1
CDK10/Cyclin L2 = CDK10/Cyclin L2 (Homo sapiens, UniProt Q15131); assay: NanoBRET live-cell target engagement, CDK10-NanoLuc/Cyclin L2 in HEK-293; conditions: CDK10/L2, 10µM
CDK14/Cyclin Y = CDK14/Cyclin Y (Homo sapiens, UniProt O94921); assay: NanoBRET live-cell target engagement, CDK14-NanoLuc/Cyclin Y in HEK-293; type: binding; conditions: CDK14/Y, 10µM
CDK15/Cyclin Y = CDK15/Cyclin Y (Homo sapiens, UniProt Q96Q40); assay: NanoBRET live-cell target engagement, NanoLuc-CDK15/Cyclin Y in HEK-293; type: binding; conditions: CDK15/Y
CDK8/Cyclin C = CDK8/Cyclin C (Homo sapiens, UniProt P49336); assay: NanoBRET live-cell target engagement, NanoLuc-CDK8/Cyclin C in HEK-293; type: binding; conditions: CDK8/C, 10µM
CDK19/Cyclin C = CDK19/Cyclin C (Homo sapiens, UniProt Q9BWU1); assay: NanoBRET live-cell target engagement, NanoLuc-CDK19/Cyclin C in HEK-293; conditions: CDK19/C, 10µM
CDK9/Cyclin K = CDK9/Cyclin K (Homo sapiens, UniProt P50750); assay: NanoBRET live-cell target engagement, NanoLuc-CDK9/Cyclin K in HEK-293; type: binding; conditions: CDK9/K, 10µM
CDK20/Cyclin H = CDK20/Cyclin H (Homo sapiens, UniProt Q8IZL9); assay: NanoBRET live-cell target engagement, NanoLuc-CDK20/Cyclin H in HEK-293; type: binding; conditions: CDK20/H; 10µM
CDK17/Cyclin Y = CDK17/Cyclin Y (Homo sapiens, UniProt Q00537); assay: NanoBRET live-cell target engagement, CDK17-NanoLuc/Cyclin Y in HEK-293; type: binding; conditions: CDK17/Y
CDK1/Cyclin E1 = CDK1/Cyclin E1 (Homo sapiens, UniProt P06493); assay: NanoBRET live-cell target engagement, CDK1-NanoLuc/Cyclin E1 in HEK-293; type: binding; conditions: CDK1/E1
CDK5/CDK5R1 = CDK5/CDK5R1 (Homo sapiens, UniProt Q00535); assay: NanoBRET live-cell target engagement, CDK5-NanoLuc/CDK5R1 in HEK-293; type: binding; conditions: CDK5/CDK5R1
CDK13/Cyclin K = CDK13/Cyclin K (Homo sapiens, UniProt Q14004); assay: NanoBRET live-cell target engagement, CDK13-NanoLuc/Cyclin K in HEK-293; type: binding; conditions: CDK13/K, 10µM
CDK11A/Cyclin L2 = target: T1, CDK11A/Cyclin L2 (Homo sapiens, UniProt Q9UQ88); assay: NanoBRET live-cell target engagement, CDK11A-NanoLuc/Cyclin L2 in HEK-293; type: binding; conditions: CDK11a/L2, 10µM
T1 sequence (Q9UQ88 1-783): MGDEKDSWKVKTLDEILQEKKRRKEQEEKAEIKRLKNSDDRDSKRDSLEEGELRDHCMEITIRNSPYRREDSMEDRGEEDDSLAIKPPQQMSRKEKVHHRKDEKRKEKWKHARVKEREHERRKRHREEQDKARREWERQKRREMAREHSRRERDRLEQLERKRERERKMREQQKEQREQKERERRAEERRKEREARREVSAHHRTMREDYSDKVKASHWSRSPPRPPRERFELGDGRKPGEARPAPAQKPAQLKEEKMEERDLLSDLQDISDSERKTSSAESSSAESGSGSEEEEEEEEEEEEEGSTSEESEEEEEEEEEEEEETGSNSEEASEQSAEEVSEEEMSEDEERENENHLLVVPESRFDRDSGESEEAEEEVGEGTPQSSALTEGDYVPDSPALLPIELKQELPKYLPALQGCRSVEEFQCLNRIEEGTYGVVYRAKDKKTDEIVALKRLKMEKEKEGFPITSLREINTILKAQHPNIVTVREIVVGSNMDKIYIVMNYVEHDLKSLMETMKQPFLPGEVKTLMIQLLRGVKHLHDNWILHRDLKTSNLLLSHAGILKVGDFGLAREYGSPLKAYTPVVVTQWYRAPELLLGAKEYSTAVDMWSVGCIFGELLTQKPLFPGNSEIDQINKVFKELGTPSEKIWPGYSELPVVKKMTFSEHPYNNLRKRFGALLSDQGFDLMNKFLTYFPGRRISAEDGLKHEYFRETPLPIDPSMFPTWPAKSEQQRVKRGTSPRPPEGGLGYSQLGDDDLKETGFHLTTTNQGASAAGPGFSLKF

CDK4/Cyclin D1 = CDK4/Cyclin D1 (Homo sapiens, UniProt P11802); assay: NanoBRET live-cell target engagement, NanoLuc-CDK4/Cyclin D1 in HEK-293; type: binding; conditions: CDK4/D1
CDK16/Cyclin Y = CDK16/Cyclin Y (Homo sapiens, UniProt Q00536); assay: NanoBRET live-cell target engagement, CDK16-NanoLuc/Cyclin Y in HEK-293; type: binding; conditions: CDK16/Y
[1] = n=3 average ± SEM, n=2 average to 2 significant figures, read-out: IC50 (nM) Average*
[2] = read-out: IC50 (nM) Replicate 1
[3] = read-out: IC50 (nM) Replicate 2

Chain of CDK15/Cyclin Y (Q96Q40 whole entry): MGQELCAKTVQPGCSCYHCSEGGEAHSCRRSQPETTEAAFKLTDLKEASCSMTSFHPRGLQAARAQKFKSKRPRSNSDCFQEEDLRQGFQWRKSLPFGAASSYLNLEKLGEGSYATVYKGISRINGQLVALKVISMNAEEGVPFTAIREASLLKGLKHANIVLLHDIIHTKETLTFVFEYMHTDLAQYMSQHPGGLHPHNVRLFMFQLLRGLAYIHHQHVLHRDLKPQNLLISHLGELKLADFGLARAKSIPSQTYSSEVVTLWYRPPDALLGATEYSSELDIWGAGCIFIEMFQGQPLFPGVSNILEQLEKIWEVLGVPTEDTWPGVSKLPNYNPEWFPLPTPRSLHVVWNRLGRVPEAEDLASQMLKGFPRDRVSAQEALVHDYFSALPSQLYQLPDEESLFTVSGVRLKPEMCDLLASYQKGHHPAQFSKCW
Chain of CDK15/Cyclin Y (Q8ND76 whole entry partner): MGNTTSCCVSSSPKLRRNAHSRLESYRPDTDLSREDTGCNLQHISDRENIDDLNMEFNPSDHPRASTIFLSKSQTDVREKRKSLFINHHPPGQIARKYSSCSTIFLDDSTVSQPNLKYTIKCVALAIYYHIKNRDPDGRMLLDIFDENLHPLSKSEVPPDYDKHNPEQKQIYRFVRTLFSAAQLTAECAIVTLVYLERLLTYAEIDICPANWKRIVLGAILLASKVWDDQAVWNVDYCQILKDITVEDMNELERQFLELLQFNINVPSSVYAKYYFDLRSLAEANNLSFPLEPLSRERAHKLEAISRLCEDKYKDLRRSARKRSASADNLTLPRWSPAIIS
Chain of CDK5/CDK5R1 (Q00535 whole entry): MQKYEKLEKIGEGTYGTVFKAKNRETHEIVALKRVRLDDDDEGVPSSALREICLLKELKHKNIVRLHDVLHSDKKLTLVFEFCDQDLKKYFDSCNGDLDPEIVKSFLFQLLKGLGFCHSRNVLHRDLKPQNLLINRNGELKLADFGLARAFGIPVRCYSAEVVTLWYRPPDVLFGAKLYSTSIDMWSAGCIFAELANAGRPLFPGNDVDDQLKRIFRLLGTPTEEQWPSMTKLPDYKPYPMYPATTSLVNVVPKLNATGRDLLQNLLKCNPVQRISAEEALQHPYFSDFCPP
Chain of CDK5/CDK5R1 (Q15078 whole entry partner): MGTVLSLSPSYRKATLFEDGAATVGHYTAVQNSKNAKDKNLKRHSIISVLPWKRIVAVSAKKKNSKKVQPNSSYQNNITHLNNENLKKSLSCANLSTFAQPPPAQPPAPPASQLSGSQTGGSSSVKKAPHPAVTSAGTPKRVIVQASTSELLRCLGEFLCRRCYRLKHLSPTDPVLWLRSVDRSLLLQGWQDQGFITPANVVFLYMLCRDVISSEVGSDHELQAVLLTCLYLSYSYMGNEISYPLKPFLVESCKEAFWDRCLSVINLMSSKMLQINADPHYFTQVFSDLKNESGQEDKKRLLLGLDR
Chain of CDK9/Cyclin K (P50750 whole entry): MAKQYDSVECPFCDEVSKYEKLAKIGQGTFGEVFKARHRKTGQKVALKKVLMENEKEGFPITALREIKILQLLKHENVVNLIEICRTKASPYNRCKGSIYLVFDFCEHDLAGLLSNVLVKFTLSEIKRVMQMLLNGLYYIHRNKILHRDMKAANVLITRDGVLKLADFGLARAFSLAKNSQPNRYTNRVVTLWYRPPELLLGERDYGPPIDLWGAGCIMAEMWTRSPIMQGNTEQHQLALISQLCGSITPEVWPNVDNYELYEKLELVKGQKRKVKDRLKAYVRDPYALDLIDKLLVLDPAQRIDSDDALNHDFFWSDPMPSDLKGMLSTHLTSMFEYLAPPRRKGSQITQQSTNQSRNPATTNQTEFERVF
Chain of CDK9/Cyclin K (O75909 whole entry partner): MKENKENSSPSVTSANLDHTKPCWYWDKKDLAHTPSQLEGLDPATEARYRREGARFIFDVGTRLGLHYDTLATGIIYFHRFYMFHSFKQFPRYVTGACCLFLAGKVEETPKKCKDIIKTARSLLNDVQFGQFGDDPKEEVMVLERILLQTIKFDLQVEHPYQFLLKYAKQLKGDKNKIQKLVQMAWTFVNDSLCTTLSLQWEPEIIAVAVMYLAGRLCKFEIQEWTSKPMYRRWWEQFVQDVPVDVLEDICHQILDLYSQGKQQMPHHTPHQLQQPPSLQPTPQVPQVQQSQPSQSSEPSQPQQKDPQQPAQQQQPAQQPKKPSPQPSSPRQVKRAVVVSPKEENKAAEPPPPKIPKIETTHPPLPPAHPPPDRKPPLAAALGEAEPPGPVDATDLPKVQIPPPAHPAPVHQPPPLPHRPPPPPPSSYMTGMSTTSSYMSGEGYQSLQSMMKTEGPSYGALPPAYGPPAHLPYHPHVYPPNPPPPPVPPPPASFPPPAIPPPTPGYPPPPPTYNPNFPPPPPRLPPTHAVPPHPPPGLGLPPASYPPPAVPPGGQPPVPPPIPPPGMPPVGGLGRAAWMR
Chain of CDK6/Cyclin D1 (Q00534 whole entry): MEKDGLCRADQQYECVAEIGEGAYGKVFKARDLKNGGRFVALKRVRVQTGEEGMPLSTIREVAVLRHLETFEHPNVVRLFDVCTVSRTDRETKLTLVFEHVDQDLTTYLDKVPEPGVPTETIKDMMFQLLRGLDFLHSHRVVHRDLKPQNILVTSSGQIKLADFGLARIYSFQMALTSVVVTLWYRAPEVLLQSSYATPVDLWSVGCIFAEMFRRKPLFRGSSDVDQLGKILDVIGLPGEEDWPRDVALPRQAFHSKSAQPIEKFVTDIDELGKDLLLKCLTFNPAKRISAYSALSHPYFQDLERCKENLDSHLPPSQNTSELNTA
Chain of CDK6/Cyclin D1 (P24385 whole entry partner): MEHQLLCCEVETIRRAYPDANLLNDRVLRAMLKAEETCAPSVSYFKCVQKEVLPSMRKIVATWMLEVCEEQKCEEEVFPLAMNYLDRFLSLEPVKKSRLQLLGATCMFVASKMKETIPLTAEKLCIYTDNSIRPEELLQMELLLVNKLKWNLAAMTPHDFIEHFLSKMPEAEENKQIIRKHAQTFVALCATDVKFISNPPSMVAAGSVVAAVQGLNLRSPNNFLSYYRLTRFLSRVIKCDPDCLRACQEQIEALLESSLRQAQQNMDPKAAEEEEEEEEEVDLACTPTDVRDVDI
Chain of CDK14/Cyclin Y (O94921 whole entry): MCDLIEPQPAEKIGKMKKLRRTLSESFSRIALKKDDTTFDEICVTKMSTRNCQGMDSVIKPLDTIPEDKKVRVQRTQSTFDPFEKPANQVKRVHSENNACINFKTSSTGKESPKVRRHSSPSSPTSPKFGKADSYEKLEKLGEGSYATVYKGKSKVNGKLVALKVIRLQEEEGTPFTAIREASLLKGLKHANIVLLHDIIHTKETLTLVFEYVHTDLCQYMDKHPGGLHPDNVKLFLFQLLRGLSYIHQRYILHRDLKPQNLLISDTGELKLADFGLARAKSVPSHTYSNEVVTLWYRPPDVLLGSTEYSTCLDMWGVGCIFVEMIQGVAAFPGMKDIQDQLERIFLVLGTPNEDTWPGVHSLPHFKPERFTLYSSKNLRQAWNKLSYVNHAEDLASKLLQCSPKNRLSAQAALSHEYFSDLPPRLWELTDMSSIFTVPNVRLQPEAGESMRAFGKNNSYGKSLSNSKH
Chain of CDK14/Cyclin Y (Q8ND76 whole entry partner): as the sequence (Q8ND76 whole entry partner) above
Chain of CDK19/Cyclin C (Q9BWU1 whole entry): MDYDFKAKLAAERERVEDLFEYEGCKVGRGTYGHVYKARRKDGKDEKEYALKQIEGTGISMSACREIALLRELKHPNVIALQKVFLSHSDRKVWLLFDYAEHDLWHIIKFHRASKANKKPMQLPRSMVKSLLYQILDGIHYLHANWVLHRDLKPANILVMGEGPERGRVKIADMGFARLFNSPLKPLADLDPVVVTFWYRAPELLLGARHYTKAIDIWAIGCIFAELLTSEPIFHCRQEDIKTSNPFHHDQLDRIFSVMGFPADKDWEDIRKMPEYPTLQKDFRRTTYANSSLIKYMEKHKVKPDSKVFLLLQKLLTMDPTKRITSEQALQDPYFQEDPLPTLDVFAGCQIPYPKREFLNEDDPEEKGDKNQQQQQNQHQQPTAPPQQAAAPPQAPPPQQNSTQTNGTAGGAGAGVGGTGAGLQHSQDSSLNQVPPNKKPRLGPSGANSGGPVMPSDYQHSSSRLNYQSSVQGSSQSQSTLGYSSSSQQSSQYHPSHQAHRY
Chain of CDK19/Cyclin C (P24863 whole entry partner): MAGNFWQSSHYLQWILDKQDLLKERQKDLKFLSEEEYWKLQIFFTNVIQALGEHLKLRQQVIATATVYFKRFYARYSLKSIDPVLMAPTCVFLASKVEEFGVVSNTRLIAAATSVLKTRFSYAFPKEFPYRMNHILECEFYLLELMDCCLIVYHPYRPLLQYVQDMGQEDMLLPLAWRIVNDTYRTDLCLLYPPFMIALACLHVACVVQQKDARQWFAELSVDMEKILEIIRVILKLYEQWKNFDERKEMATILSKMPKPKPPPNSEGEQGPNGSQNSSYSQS
Chain of CDK18/Cyclin Y (Q07002 whole entry): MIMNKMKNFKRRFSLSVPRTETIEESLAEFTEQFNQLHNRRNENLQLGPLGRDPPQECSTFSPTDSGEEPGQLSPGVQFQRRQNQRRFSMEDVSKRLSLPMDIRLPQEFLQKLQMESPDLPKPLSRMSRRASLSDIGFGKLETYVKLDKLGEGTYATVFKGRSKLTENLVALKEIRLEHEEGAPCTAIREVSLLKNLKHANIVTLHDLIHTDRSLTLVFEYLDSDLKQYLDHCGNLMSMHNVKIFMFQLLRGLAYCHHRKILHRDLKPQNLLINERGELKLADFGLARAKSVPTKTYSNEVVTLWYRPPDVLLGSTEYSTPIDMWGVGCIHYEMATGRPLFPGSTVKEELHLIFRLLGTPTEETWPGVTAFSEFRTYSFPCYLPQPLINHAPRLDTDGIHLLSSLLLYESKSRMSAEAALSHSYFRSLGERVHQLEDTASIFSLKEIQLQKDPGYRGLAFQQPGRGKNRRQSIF
Chain of CDK18/Cyclin Y (Q8ND76 whole entry partner): as the sequence (Q8ND76 whole entry partner) above

CC(C)c1cnn2c(NCc3ccccc3)cc(N[C@@H](CO)[C@H](O)CO)nc12 [BS-194]
Inhibition at 10µM (%) Replicate 1 (CDK18/Cyclin Y; 10µM): 80.3%
Inhibition at 10µM (%) Replicate 2 (CDK18/Cyclin Y; 10µM): 90.8%
Inhibition at 10µM (%) Average (CDK18/Cyclin Y; 10µM, average of replicates): 85.6%
IC50 (CDK18/Cyclin Y; [1]): 480 nM
IC50 (CDK18/Cyclin Y; [2]): 448 nM
IC50 (CDK18/Cyclin Y; [3]): 520 nM
Inhibition at 10µM (%) Replicate 1 (CDK12/Cyclin K; 10µM): 52.0%
Inhibition at 10µM (%) Replicate 2 (CDK12/Cyclin K; 10µM): 55.6%
Inhibition at 10µM (%) Average (CDK12/Cyclin K; 10µM, average of replicates): 53.8%
IC50 (CDK12/Cyclin K; n=2 average to 2 significant figures, read-out: IC50 (nM) Average*): 350 nM
IC50 (CDK12/Cyclin K; [2]): 187 nM
IC50 (CDK12/Cyclin K; [3]): 510 nM
Inhibition at 10µM (%) Replicate 1 (CDK11B/Cyclin L2): 17.3%
Inhibition at 10µM (%) Replicate 2 (CDK11B/Cyclin L2): 10.7%
Inhibition at 10µM (%) Average (CDK11B/Cyclin L2; average of replicates): 14.0%
Inhibition at 10µM (%) Replicate 1 (CDK6/Cyclin D1; 10µM): 83.0%
Inhibition at 10µM (%) Replicate 2 (CDK6/Cyclin D1; 10µM): 87.3%
Inhibition at 10µM (%) Average (CDK6/Cyclin D1; 10µM, average of replicates): 85.2%
IC50 (CDK6/Cyclin D1; [1]): 430 nM
IC50 (CDK6/Cyclin D1; [2]): 270 nM
IC50 (CDK6/Cyclin D1; [3]): 580 nM
Inhibition at 10µM (%) Replicate 1 (CDK10/Cyclin L2): 30.3%
Inhibition at 10µM (%) Replicate 2 (CDK10/Cyclin L2): 21.0%
Inhibition at 10µM (%) Average (CDK10/Cyclin L2; average of replicates): 25.6%
Inhibition at 10µM (%) Replicate 1 (CDK14/Cyclin Y): 70.6%
Inhibition at 10µM (%) Replicate 2 (CDK14/Cyclin Y): 73.5%
Inhibition at 10µM (%) Average (CDK14/Cyclin Y; average of replicates): 72.1%
Inhibition at 10µM (%) Replicate 1 (CDK15/Cyclin Y; 10µM): 81.4%
Inhibition at 10µM (%) Replicate 2 (CDK15/Cyclin Y; 10µM): 84.3%
Inhibition at 10µM (%) Average (CDK15/Cyclin Y; 10µM, average of replicates): 82.8%
IC50 (CDK15/Cyclin Y; [1]): 870 nM
IC50 (CDK15/Cyclin Y; [2]): 840 nM
IC50 (CDK15/Cyclin Y; [3]): 900 nM
Inhibition at 10µM (%) Replicate 1 (CDK8/Cyclin C): 28.1%
Inhibition at 10µM (%) Replicate 2 (CDK8/Cyclin C): 22.4%
Inhibition at 10µM (%) Average (CDK8/Cyclin C; average of replicates): 25.2%
Inhibition at 10µM (%) Replicate 1 (CDK19/Cyclin C): 38.0%
Inhibition at 10µM (%) Replicate 2 (CDK19/Cyclin C): 19.3%
Inhibition at 10µM (%) Average (CDK19/Cyclin C; average of replicates): 28.6%
Inhibition at 10µM (%) Replicate 1 (CDK9/Cyclin K): 99.1%
Inhibition at 10µM (%) Replicate 2 (CDK9/Cyclin K): 98.0%
Inhibition at 10µM (%) Average (CDK9/Cyclin K; average of replicates): 98.5%
Inhibition at 10µM (%) Replicate 1 (CDK20/Cyclin H): 31.5%
Inhibition at 10µM (%) Replicate 2 (CDK20/Cyclin H): 34.8%
Inhibition at 10µM (%) Replicate 1 (CDK17/Cyclin Y; 10µM): 77.5%
Inhibition at 10µM (%) Replicate 2 (CDK17/Cyclin Y; 10µM): 82.4%
Inhibition at 10µM (%) Average (CDK17/Cyclin Y; 10µM, average of replicates): 80.0%
IC50 (CDK17/Cyclin Y; [1]): 550 nM
IC50 (CDK17/Cyclin Y; [2]): 485 nM
IC50 (CDK17/Cyclin Y; [3]): 620 nM
Inhibition at 10µM (%) Replicate 1 (CDK1/Cyclin E1; 10µM): 72.5%
Inhibition at 10µM (%) Replicate 2 (CDK1/Cyclin E1; 10µM): 77.7%
Inhibition at 10µM (%) Average (CDK1/Cyclin E1; 10µM, average of replicates): 75.1%
IC50 (CDK1/Cyclin E1; [1]): 170 nM
IC50 (CDK1/Cyclin E1; [2]): 297 nM
IC50 (CDK1/Cyclin E1; [3]): 50 nM
Inhibition at 10µM (%) Replicate 1 (CDK5/CDK5R1; 10µM): 90.9%
Inhibition at 10µM (%) Replicate 2 (CDK5/CDK5R1; 10µM): 93.7%
Inhibition at 10µM (%) Average (CDK5/CDK5R1; 10µM, average of replicates): 92.3%
IC50 (CDK5/CDK5R1; [1]): 61 nM
IC50 (CDK5/CDK5R1; [2]): 79 nM
IC50 (CDK5/CDK5R1; [3]): 42 nM
Inhibition at 10µM (%) Replicate 1 (CDK13/Cyclin K): 38.2%
Inhibition at 10µM (%) Replicate 2 (CDK13/Cyclin K): 46.4%
Inhibition at 10µM (%) Average (CDK13/Cyclin K; average of replicates): 42.3%
Inhibition at 10µM (%) Replicate 1 (CDK11A/Cyclin L2): 16.5%
Inhibition at 10µM (%) Replicate 2 (CDK11A/Cyclin L2): 18.5%
Inhibition at 10µM (%) Average (CDK11A/Cyclin L2; average of replicates): 17.5%
Inhibition at 10µM (%) Replicate 1 (CDK4/Cyclin D1; 10µM): 84.5%
Inhibition at 10µM (%) Replicate 2 (CDK4/Cyclin D1; 10µM): 68.7%
Inhibition at 10µM (%) Average (CDK4/Cyclin D1; 10µM, average of replicates): 76.6%
IC50 (CDK4/Cyclin D1; [1]): 520 nM
IC50 (CDK4/Cyclin D1; [2]): 530 nM
IC50 (CDK4/Cyclin D1; [3]): 500 nM
Inhibition at 10µM (%) Replicate 1 (CDK16/Cyclin Y; 10µM): 82.0%
Inhibition at 10µM (%) Replicate 2 (CDK16/Cyclin Y; 10µM): 83.8%
IC50 (CDK16/Cyclin Y; [1]): 630 nM
IC50 (CDK16/Cyclin Y; [2]): 495 nM
IC50 (CDK16/Cyclin Y; [3]): 770 nM
